From patent US8710228B2, “Cycloalkylamine substituted isoquinoline derivatives” (Sanofi, priority 2006, dated 2014) come the findings set out here.

This assay deals with T1, ROCKII or ROKα (Rattus norvegicus, UniProt Q62868).
T1 construct: purchased Upstate 14-451
T1 sequence (Q62868 11-552 limits assumed): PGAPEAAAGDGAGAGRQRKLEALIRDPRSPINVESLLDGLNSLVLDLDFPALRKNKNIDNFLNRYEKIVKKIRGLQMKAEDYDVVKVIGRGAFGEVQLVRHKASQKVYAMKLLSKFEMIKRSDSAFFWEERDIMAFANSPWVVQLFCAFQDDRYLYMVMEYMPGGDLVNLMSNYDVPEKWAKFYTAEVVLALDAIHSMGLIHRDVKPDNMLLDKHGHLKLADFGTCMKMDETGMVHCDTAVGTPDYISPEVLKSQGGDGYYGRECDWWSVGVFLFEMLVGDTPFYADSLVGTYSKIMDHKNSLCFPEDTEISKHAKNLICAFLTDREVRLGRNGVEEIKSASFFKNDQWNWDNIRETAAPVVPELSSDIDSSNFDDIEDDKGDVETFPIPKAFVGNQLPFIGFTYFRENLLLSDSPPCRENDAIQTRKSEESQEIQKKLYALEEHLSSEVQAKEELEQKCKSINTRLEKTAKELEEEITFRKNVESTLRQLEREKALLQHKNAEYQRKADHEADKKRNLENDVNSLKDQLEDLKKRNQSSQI
The experiment in a line: Determination of Rho kinase inhibition (33P-ATP, Streptavidin Flash Plate). The note with it: ATP 40 μM, activity denoted as pIC50 classes. It counts as biochemical. How it is done:
Determination of Rho Kinase Inhibition
To measure Rho-kinase inhibition, IC50 values were determined according to the following protocol:
Buffer: 25 mM Tris pH7.5; 0.02% BSA; 5% Glycerol; 0.008% Triton X100; 2% DMSO, 1 mM DTT; 1 mM MgCl2; 0.5 μCi/well γ^33P ATP
Enzyme: ROCKII or ROKα) (Upstate, Catalog #14-451 Lot # 24880U) 0.1 ng/μl
Final concentration of ATP in reaction mixture 40 μM
Biotinylated substrate, diluted to 0.25 μM with buffer described above (without ATP) • 1. 10 μl Tris buffer (±Inhibitor) • 2. Add 30 μL of enzyme solution • 3. Start the reaction with 30 μL of mix substrate/ATP/ATP33 • 4. Incubate for 20 min at room temperature • 5. Stop reaction with 30 μL of 50 mM EDTA • 6. Transfer 50 μL of stopped solution to Streptavidin Flash Plate plus, Perkin Elmer, SMP 103A • 7. Incubate for 30 min at RT • 8. Wash 4 times with 300 μl of PBS/0.1% Tween 20 • 9. Radioactivity in the well was determined
Take `CC1(c2ccc(CNC3CCC(Oc4ccc5cnccc5c4)CC3)cc2)NC(=O)NC1=O.O=C(O)C(F)(F)F` (mixture of isomers) [Example 38, 5-(4-{[4-(isoquinolin-6-yloxy)-cyclohexylamino]-methyl}-phenyl)-5-methyl-imidazolidine-2,4-dione]: the IC50 entry is “+++++ (6.0 ≦ pIC50)”. With `CC(C)CN(C)C1CCC(Oc2ccc3cnccc3c2)CC1.O=C(O)C(F)(F)F` (mixture of isomers) [Example 45, Isobutyl-[4-(isoquinolin-6-yloxy)-cyclohexyl]-methyl-amine] the entry was “++++ (5.0 ≦ pIC50 < 6.0)”. For the compound `CN(Cc1cnn(-c2ccc(F)cc2)c1)C1CCC(Oc2ccc3cnccc3c2)CC1.O=C(O)C(F)(F)F` (mixture of isomers) [Example 52, [1-(4-Fluoro-phenyl)-1H-pyrazol-4-ylmethyl]-[4-(isoquinolin-6-yloxy)-cyclohexyl]-methyl-amine], the IC50 result was “++++ (5.0 ≦ pIC50 < 6.0)”.

In the case of `O=C(O)C(F)(F)F.c1ccc2c(CNC3CCC(Oc4ccc5cnccc5c4)CC3)cccc2c1` (mixture of isomers) [Example 54, [4-(Isoquinolin-6-yloxy)-cyclohexyl]-naphthalen-1-ylmethyl-amine], the IC50 entry was “++++ (5.0 ≦ pIC50 < 6.0)”. Regarding `O=C(O)C(F)(F)F.c1csc(-c2nc(CNC3CCC(Oc4ccc5cnccc5c4)CC3)cs2)c1` (mixture of isomers) [Example 58, [4-(Isoquinolin-6-yloxy)-cyclohexyl]-(2-thiophen-2-yl-thiazol-4-ylmethyl)-amine], the IC50 entry is given as “++++ (5.0 ≦ pIC50 < 6.0)”. With `N[C@H]1CC[C@@H](Oc2ccc3cnccc3c2Cl)CC1` [Example 13, cis-4-(5-Chloro-isoquinolin-6-yloxy)-cyclohexylamine] the entry was “+++++ (6.0 ≦ pIC50)”. As for `N[C@H]1CC[C@@H](Oc2ccc3cncc(Cl)c3c2)CC1` [Example 14, cis-4-(4-Chloro-isoquinolin-6-yloxy)-cyclohexylamine], the IC50 entry is reported as “+++++ (6.0 ≦ pIC50)”.

As to `N[C@H]1CC[C@@H](Oc2ccc3cnccc3c2Br)CC1` [Example 19, cis-4-(5-Bromo-isoquinolin-6-yloxy)-cyclohexylamine], the IC50 entry is recorded as “+++++ (6.0 ≦ pIC50)”. The same measure for `c1cncc(CN[C@H]2CC[C@@H](Oc3ccc4cnccc4c3)CC2)c1` [Example 23, cis-[4-(Isoquinolin-6-yloxy)-cyclohexyl]-pyridin-3-ylmethyl-amine]: “+++++ (6.0 ≦ pIC50)”; for `CC(C)N[C@H]1CC[C@@H](Oc2ccc3cnccc3c2)CC1` [Example 26, Isopropyl-cis-[4-(isoquinolin-6-yloxy)-cyclohexyl]-amine]: “+++++ (6.0 ≦ pIC50)”.

For `CCOC(=O)N1CCN(C2CCC(Oc3ccc4cnccc4c3)CC2)CC1.O=C(O)C(F)(F)F` (stereo not shown) [Example 44, 4-[4-(Isoquinolin-6-yloxy)-cyclohexyl]-piperazine-1-carboxylic acid ethyl ester], the IC50 result is on record as “++++ (5.0 ≦ pIC50 < 6.0)”. With `c1cc2cc(O[C@H]3CC[C@@H](NC4CC4)CC3)ccc2cn1` [Example 64, cis-Cyclopropyl-[4-(isoquinolin-6-yloxy)-cyclohexyl]-amine], the IC50 result is reported as “+++++ (6.0 ≦ pIC50)”. The same measure for `CC(=O)Nc1ccc(CN[C@H]2CC[C@@H](Oc3ccc4cnccc4c3)CC2)cc1` [Example 72, cis-N-(4-{[4-(Isoquinolin-6-yloxy)-cyclohexylamino]-methyl}-phenyl)-acetamide]: “+++++ (6.0 ≦ pIC50)”.

For the compound `CN(C)/C=N/S(=O)(=O)c1cc(CN[C@H]2CC[C@@H](Oc3ccc4cnccc4c3Cl)CC2)ccc1Cl` [Example 74, 2-Chloro-5-{cis-[4-(5-chloro-isoquinolin-6-yloxy)-cyclohexylamino]-methyl}-N-dimethylaminomethylene-benzenesulfonamide], the IC50 entry is “+++++ (6.0 ≦ pIC50)”.

Take `Clc1c(OC2CCC(NC3CCCCC3)CC2)ccc2cnccc12` (stereo not shown) [Example 80, [4-(5-Chloro-isoquinolin-6-yloxy)-cyclohexyl]-cyclohexyl-amine]: the IC50 entry is given as “+++++ (6.0 ≦ pIC50)”. The same measure for `Cl.N[C@H]1CC[C@@H](Oc2ccc3cnccc3c2-c2ccsc2)CC1` [Example 87, cis-4-(5-Thiophen-3-yl-isoquinolin-6-yloxy)-cyclohexylamine]: “+++++ (6.0 ≦ pIC50)”; for `C=Cc1c(O[C@H]2CC[C@@H](N)CC2)ccc2cnccc12.Cl` [Example 90, cis-4-(5-Vinyl-isoquinolin-6-yloxy)-cyclohexylamine]: “+++++ (6.0 ≦ pIC50)”.

Take `N[C@H]1CC[C@H](Oc2c(Cl)cc3cnccc3c2Cl)CC1` [Example 96, trans-4-(5,7-Dichloro-isoquinolin-6-yloxy)-cyclohexylamine]: the IC50 result was “+++++ (6.0 ≦ pIC50)”. Consider `N[C@H]1CC[C@@H](Oc2ccc3cnc(Nc4cccc(Cl)c4)cc3c2)CC1` [Example 147, cis-[6-(4-Amino-cyclohexyloxy)-isoquinolin-3-yl]-(3-chloro-phenyl)-amine], for which the IC50 result is “++++ (5.0 ≦ pIC50 < 6.0)”. Turning to `COc1cc(Nc2cc3cc(O[C@H]4CC[C@@H](N)CC4)ccc3cn2)cc(OC)c1OC.Cl` [Example 149, cis-[6-(4-Amino-cyclohexyloxy)-isoquinolin-3-yl]-(3,4,5-trimethoxy-phenyl)-amine], the IC50 entry is on record as “+++++ (6.0 ≦ pIC50)”. The same measure for `N[C@H]1CC[C@@H](Oc2ccc3cnc(Nc4cnccn4)cc3c2)CC1` [Example 150, cis-[6-(4-Amino-cyclohexyloxy)-isoquinolin-3-yl]-pyrazin-2-yl-amine]: “++++ (5.0 ≦ pIC50 < 6.0)”; for `CCc1cncc2ccc(O[C@H]3CC[C@@H](N)CC3)cc12` [Example 156, cis-4-(4-Ethyl-isoquinolin-6-yloxy)-cyclohexylamine]: “+++++ (6.0 ≦ pIC50)”.
